For one compound, Ki and EC50 results are on record in patent US8362054B2, “Therapeutic substituted lactams” (Allergan, Inc., priority 2007, dated 2013).

For test [1], the target named is T1, EP2 (Homo sapiens, UniProt P43116). The test can be described thus: EP2 binding (Ki). The source says: (§1) U.S. patent application Ser. No. 11/553,143, filed on Oct. 26, 2006, incorporated by reference herein, describes the methods used to obtain the in vitro data in the table below.
Test [2] concerns the target T1, EP2. The test can be described thus: EP2 cAMP assay. The test is classed as cell-based.
Excerpt: as §1
For orientation: cAMP levels reflect the balance of adenylyl cyclase and phosphodiesterase activity.

Test [3] addresses T2, EP4 (Homo sapiens, UniProt P35408). The test can be described thus: EP4 flipr functional assay. The test is classed as cell-based.
Excerpt: as §1

Test [4] addresses T3, hEP3A (Homo sapiens, UniProt P43115).
T3 sequence (P43115 1-390): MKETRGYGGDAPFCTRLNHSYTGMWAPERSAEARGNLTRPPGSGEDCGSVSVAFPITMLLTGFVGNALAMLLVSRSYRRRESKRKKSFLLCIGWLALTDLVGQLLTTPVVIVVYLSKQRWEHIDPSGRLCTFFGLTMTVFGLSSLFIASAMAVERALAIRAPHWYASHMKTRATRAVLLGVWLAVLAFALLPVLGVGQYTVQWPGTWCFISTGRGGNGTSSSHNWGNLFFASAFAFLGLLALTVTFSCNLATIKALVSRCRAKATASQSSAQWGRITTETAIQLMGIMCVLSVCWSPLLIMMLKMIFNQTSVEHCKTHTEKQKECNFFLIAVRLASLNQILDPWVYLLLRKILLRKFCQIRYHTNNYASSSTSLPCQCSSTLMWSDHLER
The test can be described thus: Other receptors functional assay, hEP3A. The format is cell-based.
Excerpt: as §1

In test [5] the target is T1, EP2. The test can be described thus: EP2 flipr functional assay. The test is classed as cell-based.
Excerpt: as §1

Test [6] deals with T2, EP4. The test can be described thus: EP4 binding (KI).
Excerpt: as §1

T1 sequence (P43116 whole entry): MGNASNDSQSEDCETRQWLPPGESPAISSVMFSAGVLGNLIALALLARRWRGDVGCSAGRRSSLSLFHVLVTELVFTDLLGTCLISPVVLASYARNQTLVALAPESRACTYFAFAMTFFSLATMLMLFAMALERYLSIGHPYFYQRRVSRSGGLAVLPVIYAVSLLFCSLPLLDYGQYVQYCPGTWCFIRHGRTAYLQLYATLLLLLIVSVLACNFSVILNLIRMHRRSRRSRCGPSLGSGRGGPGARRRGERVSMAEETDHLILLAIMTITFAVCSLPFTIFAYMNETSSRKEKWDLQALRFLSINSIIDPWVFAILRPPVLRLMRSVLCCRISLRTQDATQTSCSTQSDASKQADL
T2 sequence (P35408 whole entry): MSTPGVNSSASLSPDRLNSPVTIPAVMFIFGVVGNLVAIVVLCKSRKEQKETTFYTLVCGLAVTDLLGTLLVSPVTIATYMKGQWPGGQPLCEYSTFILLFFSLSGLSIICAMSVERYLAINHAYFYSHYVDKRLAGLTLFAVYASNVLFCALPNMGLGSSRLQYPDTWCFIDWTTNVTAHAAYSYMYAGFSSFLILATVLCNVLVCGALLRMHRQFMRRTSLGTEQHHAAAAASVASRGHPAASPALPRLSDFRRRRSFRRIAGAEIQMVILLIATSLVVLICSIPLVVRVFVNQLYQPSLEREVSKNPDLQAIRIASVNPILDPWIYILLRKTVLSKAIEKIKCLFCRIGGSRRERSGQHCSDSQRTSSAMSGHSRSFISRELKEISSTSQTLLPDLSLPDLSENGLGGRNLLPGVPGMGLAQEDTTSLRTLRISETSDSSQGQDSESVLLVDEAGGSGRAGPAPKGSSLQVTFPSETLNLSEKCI

On to `O=C(O)c1ccc(COC[C@H]2CCC(=O)N2Cc2cc(Cl)cc(Cl)c2)s1` [(R)-5-(((1-(3,5-dichlorobenzyl)-5-oxopyrrolidin-2-yl)methoxy)methyl)thiophene-2-carboxylic acid], for which the results for the inhibitory constant (Ki) in test [1] and in test [6] were 2.57 µM and 7.3 µM, respectively. Moreover, the concentration for a half-maximal effect (EC50) (in general, the concentration at which the effect is half-maximal) in test [2] was 0.081 µM; in test [3], > 10 µM; in test [4], 6450 nM; in test [5], 8.51 µM.
